Test results as given in paper PMC5461114, “A bioactive peptide amidating enzyme is required for ciliogenesis” (eLife, 2017).

Tests used:
rat PAM (PHM activity) = target: T1, rat PAM (PHM activity) (Rattus norvegicus, UniProt P14925); test: PHM activity assay in cell lysate; format: biochemical; settings: mechanism-based PHM inhibitor; PBA added to lysate; vehicle ethanol
T1 construct: rat PAM expressed in mouse corticotropes, cell lysate; PHM domain activity measured
T1 sequence (P14925 36-976): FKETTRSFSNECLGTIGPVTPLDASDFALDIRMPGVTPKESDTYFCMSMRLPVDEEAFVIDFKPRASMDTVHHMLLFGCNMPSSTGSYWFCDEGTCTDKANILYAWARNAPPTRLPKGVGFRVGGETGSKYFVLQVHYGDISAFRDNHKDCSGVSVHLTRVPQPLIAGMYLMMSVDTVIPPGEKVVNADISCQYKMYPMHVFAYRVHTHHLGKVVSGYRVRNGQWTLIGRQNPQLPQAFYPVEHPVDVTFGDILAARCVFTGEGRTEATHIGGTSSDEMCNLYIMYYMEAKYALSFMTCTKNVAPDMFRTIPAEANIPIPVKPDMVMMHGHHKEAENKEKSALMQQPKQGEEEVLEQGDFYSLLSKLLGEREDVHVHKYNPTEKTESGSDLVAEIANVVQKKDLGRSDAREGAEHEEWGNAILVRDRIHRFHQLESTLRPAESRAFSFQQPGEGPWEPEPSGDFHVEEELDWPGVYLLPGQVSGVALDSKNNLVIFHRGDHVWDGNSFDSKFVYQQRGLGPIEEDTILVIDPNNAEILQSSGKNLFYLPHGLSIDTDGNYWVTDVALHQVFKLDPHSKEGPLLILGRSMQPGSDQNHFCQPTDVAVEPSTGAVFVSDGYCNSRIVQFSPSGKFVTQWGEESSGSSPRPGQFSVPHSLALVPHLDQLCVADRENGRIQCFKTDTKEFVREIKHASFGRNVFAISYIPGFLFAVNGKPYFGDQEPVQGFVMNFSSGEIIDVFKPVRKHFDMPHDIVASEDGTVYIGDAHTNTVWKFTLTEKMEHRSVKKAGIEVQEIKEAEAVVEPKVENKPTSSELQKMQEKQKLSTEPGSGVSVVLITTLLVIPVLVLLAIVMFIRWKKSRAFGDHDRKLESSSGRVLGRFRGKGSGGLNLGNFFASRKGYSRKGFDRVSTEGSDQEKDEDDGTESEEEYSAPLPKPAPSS

CrPAM (PHM activity) = target: T2, CrPAM (PHM activity) (Chlamydomonas reinhardtii, UniProt A0A0S2C767); test: PHM activity assay in cell lysate; format: biochemical; settings: mechanism-based PHM inhibitor; PBA added to lysate; vehicle ethanol
T2 construct: gene PAM; native full-length bifunctional membrane PAM (110 kDa) in detergent cell lysate; PHM domain activity measured
T2 sequence (A0A0S2C767 22-926): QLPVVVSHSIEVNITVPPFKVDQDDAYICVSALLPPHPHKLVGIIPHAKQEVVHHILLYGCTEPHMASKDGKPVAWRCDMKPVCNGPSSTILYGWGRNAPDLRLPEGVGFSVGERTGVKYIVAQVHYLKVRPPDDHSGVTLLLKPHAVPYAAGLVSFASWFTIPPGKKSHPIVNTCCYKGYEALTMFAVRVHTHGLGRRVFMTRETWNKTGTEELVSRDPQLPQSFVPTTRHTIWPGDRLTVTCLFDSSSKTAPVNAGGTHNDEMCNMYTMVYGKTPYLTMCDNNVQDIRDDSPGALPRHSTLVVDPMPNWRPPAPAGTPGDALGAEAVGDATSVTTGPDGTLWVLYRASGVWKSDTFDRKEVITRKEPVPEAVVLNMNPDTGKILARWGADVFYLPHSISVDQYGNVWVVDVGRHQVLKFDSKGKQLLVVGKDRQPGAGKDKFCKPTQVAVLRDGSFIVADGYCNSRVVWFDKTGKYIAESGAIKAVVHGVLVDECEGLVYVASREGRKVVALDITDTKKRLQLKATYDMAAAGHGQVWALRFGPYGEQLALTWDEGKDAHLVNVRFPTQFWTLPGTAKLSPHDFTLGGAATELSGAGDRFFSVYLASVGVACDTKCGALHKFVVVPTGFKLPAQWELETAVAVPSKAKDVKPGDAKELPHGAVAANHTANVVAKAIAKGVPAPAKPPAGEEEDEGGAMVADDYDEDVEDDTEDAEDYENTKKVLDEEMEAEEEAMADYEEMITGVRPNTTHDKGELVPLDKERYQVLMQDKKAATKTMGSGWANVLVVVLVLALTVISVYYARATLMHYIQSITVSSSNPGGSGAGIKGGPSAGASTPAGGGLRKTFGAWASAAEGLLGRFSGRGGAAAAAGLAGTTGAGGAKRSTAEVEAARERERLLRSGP

**Q.** Which results are given for `O=C(O)CC=Cc1ccccc1` [4-phenyl-3-butenoic acid]?
**A.** PHM specific activity (rat PAM (PHM activity)): PHM specific activity was greatly reduced in both lysates in the presence of PBA; PHM specific activity (CrPAM (PHM activity)): did inhibit both mammalian and C. reinhardtii PHM activities
